Data from patent US20090131468A1, “Bis-(Sulfonylamino) Derivatives in Therapy 065” (AstraZeneca AB, priority 2007, published 2009).

Molecular target: T1, human mPGES-1 (Homo sapiens, UniProt O14684)
T1 sequence (O14684 1-152): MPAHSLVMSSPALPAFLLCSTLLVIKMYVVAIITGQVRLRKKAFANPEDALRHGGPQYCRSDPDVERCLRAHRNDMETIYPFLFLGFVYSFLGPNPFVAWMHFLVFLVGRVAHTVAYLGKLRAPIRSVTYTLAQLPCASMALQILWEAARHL
Assay: Microsomal prostaglandin E synthase biochemical assay
Conditions: microsome preparation containing human mPGES-1; PGH2 10.8 μM, GSH 2.5 mM, pH 6.8; PGE2 quantified by HTRF; average of at least n=2
Summary of the method: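 Human mPGES-1 microsomes (from IL-1β-stimulated A549 cells or Sf9 cells expressing human mPGES-1) were pre-incubated 15 min with compound in potassium phosphate buffer pH 6.8 with GSH. PGH2 was then added, and the reaction was stopped after one minute with acidic ferric chloride/citrate. PGE2 was read by HTRF, and IC50 was taken from control-normalised activity.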

Row | Compound | IC50 [nM]
1 | CC(C)Oc1cc(C(=O)NS(=O)(=O)c2ccccc2S(N)(=O)=O)ccc1C#CC1CCCCC1 [Example 131, 4-(Cyclohexylethynyl)-3-isopropoxy-N-(2-sulfamoylphenylsulfonyl)benzamide] | 14
2 | CC(C)Oc1cc(C(=O)NS(=O)(=O)c2ccccc2S(N)(=O)=O)ccc1C#CC1CC1 [Example 132, 4-(Cyclopropylethynyl)-3-isopropoxy-N-(2-sulfamoylphenylsulfonyl)benzamide] | 110
3 | CC(C)Oc1cc(C(=O)NS(=O)(=O)c2ccccc2S(N)(=O)=O)ccc1C#CC1(O)CCCCCC1 [Example 133, 4-((1-Hydroxycycloheptyl)ethynyl)-3-isopropoxy-N-(2-sulfamoylphenylsulfonyl)-benzamide] | 560
4 | NS(=O)(=O)c1ccccc1S(=O)(=O)NC(=O)c1ccc2[nH]c(-c3ccccc3)cc2c1 [Example 140] | 140
5 | CC(C)Oc1cc(C(=O)NS(=O)(=O)c2ccccc2S(N)(=O)=O)cnc1C#CC1CCCC1 [Example 143, 6-(Cyclopentylethynyl)-5-isopropoxy-N-(2-sulfamoylphenylsulfonyl)nicotinamide] | 14
6 | CC(C)Oc1cc(C(=O)NS(=O)(=O)c2ccccc2S(N)(=O)=O)cnc1C#CC1CCCCC1 [Example 144, 6-(Cyclohexylethynyl)-5-isopropoxy-N-(2-sulfamoylphenylsulfonyl)nicotinamide] | 11
7 | COC(C)(C)CCOc1cc(C(=O)NS(=O)(=O)c2ccccc2S(N)(=O)=O)ccc1-c1cc2ccccc2o1 [Example 145, 4-(Benzofuran-2-yl)-3-(3-methoxy-3-methylbutoxy)-N-(2-sulfamoylphenylsulfonyl)-benzamide] | 23
8 | NS(=O)(=O)c1ccccc1S(=O)(=O)NC(=O)c1ccc(C#CC2CCCC2)c(F)c1 [Example 146, 4-(Cyclopentylethynyl)-3-fluoro-N-(2-sulfamoylphenylsulfonyl)benzamide] | 15
9 | NS(=O)(=O)c1ccccc1S(=O)(=O)NC(=O)c1cnc(C#CC2CCCC2)c(Cl)c1 [Example 148, 5-Chloro-6-(cyclopentylethynyl)-N-(2-sulfamoylphenylsulfonyl)nicotinamide] | 22
10 | CC(C)(C)C#Cc1ccc(C(=O)NS(=O)(=O)c2ccccc2S(N)(=O)=O)c(C(F)(F)F)c1 [Example 151, 4-(3,3-Dimethylbut-1-ynyl)-N-(2-sulfamoylphenylsulfonyl)-2-(trifluoromethyl)-benzamide] | 380
11 | NS(=O)(=O)c1ccccc1S(=O)(=O)NC(=O)c1c(F)cc(C#CC2CCCC2)cc1F [Example 153, 4-(Cyclopentylethynyl)-2,6-difluoro-N-(2-sulfamoylphenylsulfonyl)benzamide] | 330
12 | NS(=O)(=O)c1ccccc1S(=O)(=O)NC(=O)c1ccc(C#CC2CC2)c2c1OC(F)(F)O2 [Example 159, 7-(Cyclopropylethynyl)-2,2-difluoro-N-(2-sulfamoylphenylsulfonyl)-benzo[d][1,3]dioxole-4-carboxamide] | 63

Further lines, results first:

Row | IC50 [nM] | Compound
13 | 180 | COCCOCCOc1cc(C(=O)NS(=O)(=O)c2ccccc2S(N)(=O)=O)cnc1C#CC(C)(C)C [Example 134, 6-(3,3-Dimethylbut-1-ynyl)-5-(2-(2-methoxyethoxy)ethoxy)-N-(2-sulfamoylphenyl-sulfonyl)nicotinamide]
14 | 81 | COCCOCCOc1cc(C(=O)NS(=O)(=O)c2ccccc2S(N)(=O)=O)cnc1-c1cc2ccccc2o1 [Example 135, 6-(Benzofuran-2-yl)-5-(2-(2-methoxyethoxy)ethoxy)-N-(2-sulfamoylphenylsulfonyl)-nicotinamide]
15 | 65 | COCCOCCOc1cc(C(=O)NS(=O)(=O)c2ccccc2S(N)(=O)=O)cnc1C#CC1CCCC1 [Example 136, 6-(Cyclopentylethynyl)-5-(2-(2-methoxyethoxy)ethoxy)-N-(2-sulfamoylphenyl-sulfonyl)nicotinamide]
16 | 20 | COc1cc(C(=O)NS(=O)(=O)c2ccccc2S(N)(=O)=O)cnc1C#CC1CCCC1 [Example 137, 6-(Cyclopentylethynyl)-5-methoxy-N-(2-sulfamoylphenylsulfonyl)nicotinamide]
17 | 12 | COc1cc(C(=O)NS(=O)(=O)c2ccccc2S(N)(=O)=O)cnc1C#CC1CCCCC1 [Example 138, 6-(Cyclohexylethynyl)-5-methoxy-N-(2-sulfamoylphenylsulfonyl)nicotinamide]
18 | 6.8 | COc1cc(C(=O)NS(=O)(=O)c2ccccc2S(N)(=O)=O)cnc1C#Cc1ccc(C(F)(F)F)cc1 [Example 139, 5-Methoxy-N-(2-sulfamoylphenylsulfonyl)-6-((4-(trifluoromethyl)phenyl)-ethynyl)nicotinamide]
19 | 300 | COCCn1c(-c2ccccc2)cc2cc(C(=O)NS(=O)(=O)c3ccccc3S(N)(=O)=O)ccc21 [Example 141, 1-(2-Methoxyethyl)-2-phenyl-N-(2-sulfamoylphenylsulfonyl)-1H-indole-5-carboxamide]
20 | 49 | CC(C)Oc1cc(C(=O)NS(=O)(=O)c2ccccc2S(N)(=O)=O)cnc1C#CC1CC1 [Example 142, 6-(cyclopropylethynyl)-5-isopropoxy-N-(2-sulfamoylphenylsulfonyl)nicotinamide]
21 | 54 | NS(=O)(=O)c1ccccc1S(=O)(=O)NC(=O)c1cnc(-c2cc3ccccc3o2)c(Cl)c1 [Example 147, 6-(Benzofuran-2-yl)-5-chloro-N-(2-sulfamoylphenylsulfonyl)nicotinamide]
22 | 64 | CC(C)(C)C#Cc1ncc(C(=O)NS(=O)(=O)c2ccccc2S(N)(=O)=O)cc1Cl [Example 149, 5-Chloro-6-(3,3-dimethylbut-1-ynyl)-N-(2-sulfamoylphenylsulfonyl)nicotinamide]
23 | 360 | NS(=O)(=O)c1ccccc1S(=O)(=O)NC(=O)c1ccc(-c2cc3ccccc3o2)cc1C(F)(F)F [Example 150, 4-(Benzofuran-2-yl)-N-(2-sulfamoylphenylsulfonyl)-2-(trifluoromethyl)benzamide]
24 | 570 | NS(=O)(=O)c1ccccc1S(=O)(=O)NC(=O)c1c(F)cc(-c2cc3ccccc3o2)cc1F [Example 152, 4-(Benzofuran-2-yl)-2,6-difluoro-N-(2-sulfamoylphenylsulfonyl)benzamide]
25 | 9.9 | CC(C)(O)C#Cc1cc(C(=O)NS(=O)(=O)c2ccccc2S(N)(=O)=O)ccc1-c1cc2ccccc2o1 [Example 154, 4-(Benzofuran-2-yl)-3-(3-hydroxy-3-methylbut-1-ynyl)-N-(2-sulfamoylphenyl-sulfonyl)benzamide]
26 | 110 | CC(C)(O)C#Cc1cc(C(=O)NS(=O)(=O)c2ccccc2S(N)(=O)=O)ccc1OCc1ccccc1 [Example 156, 4-(Benzyloxy)-3-(3-hydroxy-3-methylbut-1-ynyl)-N-(2-sulfamoylphenylsulfonyl)-benzamide]
27 | 580 | NS(=O)(=O)c1ccccc1S(=O)(=O)NC(=O)c1ccc2[nH]c(Cc3ccccc3)cc2c1 [Example 158, 2-Benzyl-N-(2-sulfamoylphenylsulfonyl)-1H-indole-5-carboxamide]
28 | 32 | NS(=O)(=O)c1ccccc1S(=O)(=O)NC(=O)c1ccc(C#CC2CC2)c(OCCC(F)(F)F)c1 [Example 160, 4-(Cyclopropylethynyl)-N-(2-sulfamoylphenylsulfonyl)-3-(3,3,3-trifluoropropoxy)-benzamide]
29 | 320 | NS(=O)(=O)c1cc(CO)ccc1S(=O)(=O)NC(=O)c1ccc(-c2cc3ccccc3o2)cc1 [Example 161, 4-(Benzofuran-2-yl)-N-(4-(hydroxymethyl)-2-sulfamoylphenylsulfonyl)benzamide]
30 | 11000 | NS(=O)(=O)c1ccccc1S(=O)(=O)NC(=O)c1cnc2ccccc2c1 [Example 162, Benzene-1,2-disulfonic acid 1-amide 2[(quinoline-3-carbonyl)-amide]]
